Measurements: patent US20090275780A1, “PROCESS FOR CONTROLLING THE PARTICLE SIZE OF A 3-(TRIFLUOROMETHYL)PHENYL]-1-AMINOPROPANE DERIVATIVE” (MEDICHEM, S.A., priority 2008, published 2009)

Assay: Particle size distribution by Malvern Mastersizer S particle size analyzer
Format: physicochemical
Details: for particle size D[v, 0.5] / particle size D[v, 0.9]: crystals as isolated after crystallization from isobutyl acetate and drying, by volume, mean of nine readings, hydrochloride; for AFTER MILLING D[v, 0..5] / AFTER MILLING D[v, 0.9]: after milling 1 hour, Specac Specamill, three agate balls, maximum amplitude; for BEFORE MILLING D[v, 0.9]: in µm (unit assumed)
Description: The particle size for cinacalcet hydrochloride was measured using a Malvern Mastersizer S particle size analyzer with an MS1 Small Volume Sample Dispersion Unit stirred cell. A 300RF mm lens and a beam length of 2.4 mm were used. Samples for analysis were prepared by dispersing a weighed amount of cinacalcet hydrochloride (approximately 60 mg) in 20 mL of sample dispersant, previously prepared by dilution of 1.5 g of Soybean Lecithin to 200 mL with Isopar G. The suspension was delivered drop-wise to the background-corrected measuring cell filled with dispersant (Isopar G) until the obscuration reached the desired level. Nine repeated readings of the volume distributions were taken. For characterization, the values of D50 and D90 (by volume) were selected and reported as the mean of the nine values measured.

[1] = listed as Cinacalcet hydrochloride from Example 4, hydrochloride
[2] = listed as Cinacalcet hydrochloride from Example 9, hydrochloride
[3] = listed as Cinacalcet hydrochloride from Example 7, hydrochloride

Structure (SMILES)	particle size D[v, 0.5] [μm]	particle size D[v, 0.9] [μm]	further results
C[C@@H](NCCCc1cccc(C(F)(F)F)c1)c1cccc2ccccc12.Cl [Example 2, cinacalcet hydrochloride]	20.7	86.1	
C[C@@H](NCCCc1cccc(C(F)(F)F)c1)c1cccc2ccccc12.Cl [Example 4, cinacalcet hydrochloride]	57.7	403.9	AFTER MILLING D[v, 0..5] [1]: 25.7 µm; AFTER MILLING D[v, 0.9] [1]: 91.8 µm; BEFORE MILLING D[v, 0..5] [1]: 57.7 µm; BEFORE MILLING D[v, 0.9] [1]: 403.9
C[C@@H](NCCCc1cccc(C(F)(F)F)c1)c1cccc2ccccc12.Cl [Example 1, cinacalcet hydrochloride]	23.4	95.4	
C[C@@H](NCCCc1cccc(C(F)(F)F)c1)c1cccc2ccccc12.Cl [Example 5, cinacalcet hydrochloride]	76.4	456.0	
C[C@@H](NCCCc1cccc(C(F)(F)F)c1)c1cccc2ccccc12.Cl [Example 3, cinacalcet hydrochloride]	49.8	387.9	

The next lines start with results.

particle size D[v, 0.5] [μm]	particle size D[v, 0.9] [μm]	Structure (SMILES)	further results
67.2	459.0	C[C@@H](NCCCc1cccc(C(F)(F)F)c1)c1cccc2ccccc12.Cl [Example 8, cinacalcet hydrochloride]	
65.0	392.3	C[C@@H](NCCCc1cccc(C(F)(F)F)c1)c1cccc2ccccc12.Cl [Example 6, cinacalcet hydrochloride]	
99.8	466.9	C[C@@H](NCCCc1cccc(C(F)(F)F)c1)c1cccc2ccccc12.Cl [Example 11, cinacalcet hydrochloride]	
74.0	518.3	C[C@@H](NCCCc1cccc(C(F)(F)F)c1)c1cccc2ccccc12.Cl [Example 9, cinacalcet hydrochloride]	AFTER MILLING D[v, 0..5] [2]: 25.1 µm; AFTER MILLING D[v, 0.9] [2]: 76.7 µm; BEFORE MILLING D[v, 0..5] [2]: 74 µm; BEFORE MILLING D[v, 0.9] [2]: 518.3
70.3	431.7	C[C@@H](NCCCc1cccc(C(F)(F)F)c1)c1cccc2ccccc12.Cl [Example 7, cinacalcet hydrochloride]	AFTER MILLING D[v, 0..5] [3]: 21.2 µm; AFTER MILLING D[v, 0.9] [3]: 83.3 µm; BEFORE MILLING D[v, 0..5] [3]: 70.3 µm; BEFORE MILLING D[v, 0.9] [3]: 431.7
